# Assay results as given in article PMC2797363, “Discovery of Novel Proteasome Inhibitors Using a High-Content Cell-Based Screening System” (PLoS ONE, 2009).
# Biological target: T1, 26S proteasome (chymotryptic activity, LLVY-AMC; β5 subunit) (Oryctolagus cuniculus, UniProt G1T4Q9)
# T1 construct: gene PSMB5; purified 26S proteasomes from rabbit muscle; with other subunits of the 26S proteasome
# T1 sequence (G1T4Q9 60-263): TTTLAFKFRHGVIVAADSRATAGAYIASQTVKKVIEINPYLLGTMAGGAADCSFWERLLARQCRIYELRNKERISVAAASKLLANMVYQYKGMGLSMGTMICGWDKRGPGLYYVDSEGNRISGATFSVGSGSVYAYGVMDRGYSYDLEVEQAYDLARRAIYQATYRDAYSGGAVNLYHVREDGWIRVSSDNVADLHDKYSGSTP
# Assay: Suc-LLVY-AMC fluorogenic hydrolysis by purified 26S proteasome, 30 μM compound
# Assay type: biochemical
compound,measurement,value
"Cn1c(=S)c2[nH]c(SCCN3C(=O)c4ccccc4C3=O)nc2n(C)c1=O [NSC99671, 2-[2-[(1,3-dimethyl-2-oxo-6-sulfanylidene-7H-purin-8-yl)sulfanyl]ethyl]isoindole-1,3-dione]","Suc-LLVY-AMC fluorogenic hydrolysis by purified 26S proteasome, 30 μM compound",NSC99671 displayed a moderate inhibitory effect
